This note sets out measurements from patent publication US20120065228A1, “COMPOSITIONS AND METHODS FOR TREATING, CONTROLLING, REDUCING, OR AMELIORATING OCULAR INFLAMMATORY WITH LOWER RISK OF INCREASED INTRAOCULAR PRESSURE” (priority 2007, published 2012).

Several values for one entry are separate records, joined by “and”; a condition that tells them apart may be missing. Equal values may be shown once. Read-outs that look alike come from different tables or passages of the source.

Common to all, as to type: in vivo
Data set [1] has as its system New Zealand White rabbits. The method, then: On Days 1-31, animals received daily topical doses of the appropriate test article into the right eye. Animals were dosed four times per day, with doses administered 2 hours apart. Doses were administered using a calibrated 50-μL pipette. The eyelids were held close for 10 seconds immediately following dosing. The time of each dose administration was recorded.
Animals determined to be moribund were euthanized with an intravenous injection of commercial euthanasia solution.

The subject of data set [2] is rabbit eye. The data set can be described thus: Pupillary diameter measurement, rabbit paracentesis model. Particulars: individual eyes; for Pupillary diameter T2: −5 min: 5 min before the first paracentesis; for Pupillary diameter T3: +115 min: 5 min before the second paracentesis; for Pupillary diameter Δ(T3 − T1): +115 min minus −180 min; for Pupillary diameter T1: −180 min: basal. The method, then: (§1) Each rabbit was placed in a restraint device and tagged with the alphanumeric code. The formulations were instilled (50 μl) into the conjunctival sac of both eyes 180, 120, 90 and 30 min before the first paracentesis; then 15, 30, 90 min after the first paracentesis. To perform the first paracentesis the animals were anaesthetized by intravenous injection of 5 mg/kg Zoletil® (Virbac; 2.5 mg/kg tiletamine HCl and 2.5 mg/kg zolazepam HCl) and one drop of local anesthetic (Novesina®, Novartis) was administered to the eye. Anterior chamber paracentesis was performed with a 26 G needle attached to a tuberculin syringe; the needle was introduced into the anterior chamber through the cornea, taking care not to damage the tissues. Two hours after the ® first paracentesis, the animals were sacrificed with 0.4 ml Tanax® (Intervet International B.V.) and the second paracentesis was performed. About 100 μl of aqueous humor were removed at the second paracentesis. Aqueous humor was immediately split in four aliquots and stored at −80° C. until analysis. Then both eyes were enucleated and the iris-ciliary body was carefully excised, placed in polypropylene tubes, and stored at −80° C. until analysis.
The pupillary diameter of both eyes was measured with a Castroviejo caliper 180 min and 5 min before the first paracentesis and 5 min before the second paracentesis.
(§2) Pupillary diameter, PGE2, protein, PMN, and MPO were expressed as mean±SEM. Statistical analysis was performed using one way ANOVA followed by a Newman-Keuls post hoc test. Clinical score was expressed as % of eyes and the statistical analysis was performed using Kruskal-Wallis followed by a Dunn post hoc test. P<0.05 was considered statistically significant in both cases. Prism 4 software (GraphPad Software, Inc.) was used for the analysis and graphs.

Data set [3] has as its system rabbit eye. Description: Clinical evaluation by slit lamp (clinical score), rabbit paracentesis model. Set-up: key to Clinical Score −180 min / Clinical Score −5 min / Clinical Score +115 min: 0: normal; 1: discrete dilatation of iris and conjunctival vessels; 2: moderate dilatation of iris and conjunctival vessels; 3: intense iridal hyperemia with flare in the anterior chamber; 4: intense iridal hyperemia with flare in the anterior chamber and presence of fibrinous exudates. To be noted: for Clinical Score −5 min: 5 min before the first paracentesis; for Clinical Score −5 min / Clinical Score +115 min / Clinical Score −180 min: individual eyes; for Clinical Score +115 min: 5 min before the second paracentesis; for Clinical Score −180 min: basal.

Data set [4] relates to PGE2 in the aqueous humor. The data set can be described thus: Prostaglandin E2 (PGE2) measurement in aqueous humor, rabbit paracentesis model. To be noted: for PGE2 in aqueous humor, statistical significance versus CTR: p<0.05; for PGE2 in aqueous humor, Mean / PGE2 in aqueous humor: second paracentesis; for PGE2 in aqueous humor: individual eyes. The method, then: as §1
For the quantitative determination of PGE2 in the aqueous humor we used the PGE2 Immunoassay kit (R&D Systems; Cat. No. KGE004; Lot. No. 240010). Eleven microliters or 16 μl of aqueous humor were diluted to 110 μl or 160 μl with the calibrator diluent solution provided with the kit. One hundred microliters of samples and of standards were load into a 96-well plate and recorded in a plate layout. Samples were treated following the assay procedure described in the kit. A microplate reader (GDV, Italy; model DV 990 B/V6) set at 450 nm (wavelength correction at 540 nm) was used for making the calibration and analyzing the samples.
as §2

Data set [5] deals with protein concentration in the aqueous humor. The data set can be described thus: Protein measurement in aqueous humor, rabbit paracentesis model. Particulars: for Protein in aqueous humor, Mean / Protein in aqueous humor: second paracentesis; for Protein in aqueous humor: individual eyes. The procedure:
as §1
For protein concentration determination in the aqueous humor we used the Protein Quantification Kit (Fluka; Cat. No. 77371; Lot. No. 1303129). Five microliters of aqueous humor were diluted to 100 μl with water. Twenty microliters of samples and of standards were load into a 96-well plate and recorded in a plate layout. Samples were treated following the assay procedure described in the kit. A microplate reader (GDV, Italy; model DV 990 B/V6) set at 670 nm was used for making the calibration and analyzing the samples.
as §2

Another data set relates to leukocytes (PMN). The data set can be described thus: Leukocytes (PMN) measurement in aqueous humor, rabbit paracentesis model. To be noted: second paracentesis; for PMN in aqueous humor: individual eyes. The procedure: as §1
For the determination of the number of leukocytes we used a haemocytometer (Improved Neubauer Chamber; Bright-line. Hausser Scientific) and a Polyvar 2 microscope (Reichert-Jung).
as §2

The test system of the next data set is Myeloperoxidase (MPO). Description: Myeloperoxidase (MPO) activity in iris-ciliary body, rabbit paracentesis model. To be noted: for MPO Unit/g: iris-ciliary body samples collected after the second paracentesis, individual eyes (DX/SX); for MPO activity in iris-ciliary body, Mean: after the second paracentesis. The method, then: as §1
The activity of MPO was measured as previously described by Williams et al. The iris-ciliary bodies were carefully dried, weighed and immersed in 1 ml of hexa-decyl-trimethyl-ammonium bromide solution. Then, the samples were sonicated for 10 sec on ice by a ultrasound homogenizer (HD 2070, Bandelin electronic), freeze-thawed three times, sonicated for 10 sec and centrifuged at 14,000 g for 10 min to remove cellular debris. An aliquot of the supernatant (40-200 μl) was diluted to 3 ml with the o-dianisidine 2HCl/H2O2 solution. The change in absorbance at 460 nm was continuously monitored for 5 min by a spectrophotometer (UV/Vis Spectrometer Lambda EZ 201; Perkin Elmer). The slope of the line (Δ/min) was determined for each sample and used to calculate the number of units of MPO in the tissue as follows:
were ε=11.3 mM^−1. Values were expressed as units of MPO/g of tissue.
as §2

Where [6] appears, read: 5 mg/g BOL-303242-X ([…]) topical 4 x daily, individual rabbits, Group C.
Setting [7] is: 1 mg/g BOL-303242-X (0.05 mg/dose) topical 4 x daily, individual rabbit, Group D.
The mark [8] stands for this setting: 0.5% topical formulation, +115 min, 8 eyes.

For the molecule `Cc1ccc2c(NC[C@](O)(CC(C)(C)c3cc(F)cc4c3OCC4)C(F)(F)F)cccc2n1` [BOL-30324 2-X], in data set [1] (setting [6]), the “Day of Death (day euthanized or found dead)” value was 17 and the “Recorded Notes (mortality)” value is “Euthanized due to severe diarrhea”.
For `Cc1ccc2c(NC[C@](O)(CC(C)(C)c3cc(F)cc4c3OCC4)C(F)(F)F)cccc2n1` [BOL-303242 X], in data set [1] (setting [7]), the “Day of Death (day euthanized or found dead)” value is 29 and the “Recorded Notes (mortality)” value is on record as “Found dead”.
As for `CC(C(=O)O)c1ccc(-c2ccccc2)c(F)c1` (stereo not drawn) [F, flurbiprofen, reference compound], in the data set with rabbit eye [2] (0.03% topical formulation), the “Pupillary diameter T2: −5 min” value was 6.0 mm (3×) and 6.5 mm (3×) and 7.0 mm and 5.5 mm; the “Pupillary diameter T3: +115 min” value is 4.0 mm and 3.5 mm and 5.5 mm (2×) and 5.0 mm (2×) and 4.5 mm and 6.0 mm; the “Pupillary diameter Δ(T3 − T1)” value is −1.0 mm (3×) and −1.5 mm (3×) and 0.0 mm (2×); the “Pupillary diameter T1: −180 min” value was 5.0 mm (2×) and 7.0 mm and 6.0 mm (4×) and 5.5 mm. For the same molecule, in the data set with rabbit eye [3] (0.03% topical formulation), the “Clinical Score −5 min” value is given as 0, the “Clinical Score +115 min” value is listed as 2 and the “Clinical Score −180 min” value was found to be 0. Moreover, the “Clinical score as percentage of eyes, Score (%) 2” value in the data set on rabbit eye [3] (0.03% topical formulation, +115 min, 8 eyes) was 100%. For the same molecule, the “Clinical score as percentage of eyes, Score (%) 0” value with rabbit eye [3] (0.03% topical formulation, −5 min, 8 eyes) turned out to be 100%. Further, the “Clinical score as percentage of eyes, Score (%) 0” value with rabbit eye [3] (0.03% topical formulation, −180 min (basal), 8 eyes) turned out to be 100%. For the same molecule, in data set [4] (0.03% topical formulation), the “PGE2 in aqueous humor, statistical significance versus CTR” value is on record as “statistically significant versus CTR”; the “PGE2 in aqueous humor, Mean” value stood at 1.189 ng/mL; the “PGE2 in aqueous humor” value was 1.04 ng/ml and 0.75 ng/ml and 0.85 ng/ml and 1.11 ng/ml and 2.11 ng/ml (2×) and 0.93 ng/ml and 0.61 ng/ml. In addition, in data set [5] (0.03% topical formulation, p<0.001), the “Protein in aqueous humor, statistical significance vs CTR” value is given as “statistical significance”. Further, in data set [5] (0.03% topical formulation), the “Protein in aqueous humor, Mean” value was found to be 20.910 mg/mL; the “Protein in aqueous humor” value is 20.78 mg/mL and 28.80 mg/mL and 23.41 mg/mL and 20.21 mg/mL and 17.53 mg/mL and 15.12 mg/mL and 20.52 mg/mL. In addition, in the data set with leukocytes (PMN) (0.03% topical formulation), the “PMN in aqueous humor, Mean” value was found to be 30.000 number/μl; the “PMN in aqueous humor” value is 50 number/μl and 40 number/μl (2×) and 20 number/μl (2×) and 10 number/μl and 30 number/μl. For the same molecule, the “MPO Unit/g” value with Myeloperoxidase (MPO) (0.03% F) is 1.10 Unit/g and 1.70 Unit/g and 0.34 Unit/g and 0.75 Unit/g and 0.74 Unit/g and 0.63 Unit/g and 0.73 Unit/g and 1.27 Unit/g. The “MPO activity in iris-ciliary body, Mean” value in the data set on Myeloperoxidase (MPO) (0.03% topical formulation) turned out to be 0.906 MPO Unit/g.
In the case of `CCOC(=O)O[C@]1(C(=O)OCCl)CC[C@H]2[C@@H]3CCC4=CC(=O)C=C[C@]4(C)[C@H]3[C@@H](O)C[C@@]21C` [LE, loteprednol etabonate, reference compound], in the data set on rabbit eye [2] (0.5% topical formulation), the “Pupillary diameter T2: −5 min” value is 6.0 mm (3×) and 6.5 mm (5×); the “Pupillary diameter T3: +115 min” value is 4.5 mm and 5.0 mm (2×) and 5.5 mm (2×) and 6.0 mm (3×); the “Pupillary diameter Δ(T3 − T1)” value is −1.5 mm (2×) and −1.0 mm (3×) and 0.0 mm and −0.5 mm (2×); the “Pupillary diameter T1: −180 min” value was 6.0 mm (3×) and 6.5 mm (5×). Moreover, in the data set with rabbit eye [3] (0.5% topical formulation), the “Clinical Score −5 min” value is recorded as 0; the “Clinical Score +115 min” value was 2 (2×) and 1 (6×); the “Clinical Score −180 min” value stood at 0. Moreover, in the data set on rabbit eye [3] (setting [8]), the “Clinical score as percentage of eyes, Score (%) 1” value turned out to be 75% and the “Clinical score as percentage of eyes, Score (%) 2” value is recorded as 25%. For the same molecule, in the data set with rabbit eye [3] (0.5% topical formulation, p<0.05), the “Clinical score, difference versus CTR” value is “significant difference versus CTR”. Moreover, the “Clinical score as percentage of eyes, Score (%) 0” value in the data set with rabbit eye [3] (0.5% topical formulation, −5 min, 8 eyes) came out at 100%. Further, the “Clinical score as percentage of eyes, Score (%) 0” value in the data set on rabbit eye [3] (0.5% topical formulation, −180 min (basal), 8 eyes) is given as 100%. Besides, in data set [4] (0.5% topical formulation), the “PGE2 in aqueous humor, statistical significance versus CTR” value is “statistically significant versus CTR”; the “PGE2 in aqueous humor, Mean” value came out at 0.672 ng/mL; the “PGE2 in aqueous humor” value was “^2N/D and 0.23 ng/ml and 0.68 ng/ml and 1.10 ng/ml”. In data set [5] (0.5% topical formulation), the “Protein in aqueous humor, Mean” value turned out to be 33.905 mg/mL; the “Protein in aqueous humor” value is 36.14 mg/mL and 39.10 mg/mL and 34.69 mg/mL and 26.10 mg/mL and 26.30 mg/mL and 28.16 mg/mL and 40.90 mg/mL and 39.85 mg/mL. Besides, in the data set with leukocytes (PMN) (0.5% topical formulation), the “PMN in aqueous humor, Mean” value came out at 28.333 number/μl; the “PMN in aqueous humor” value is 40 number/μl (2×) and 20 number/μl (3×) and 30 number/μl. Further, the “MPO Unit/g” value in the data set with Myeloperoxidase (MPO) (0.5% LE) is 0.30 Unit/g and 0.51 Unit/g and 0.81 Unit/g and 0.60 Unit/g and 0.73 Unit/g and 1.01 Unit/g. Moreover, the “MPO activity in iris-ciliary body, Mean” value in the data set with Myeloperoxidase (MPO) (0.5% topical formulation) was found to be 0.661 MPO Unit/g.
